Experiments:
[1] = literature; cited from earlier work
[2] = test system: malignant tumour cells; conditions: literature; cited from earlier work
[3] = Stability (storage) tests via 2.6-DMBQ / 2-MBQ concentration by HPLC; assay type: physicochemical
Description: The decomposition of the material according to the invention was checked via the chanqes in concentration of the 2.6-dimethoxy-p-benzoquinone. We conducted storage experiments at three different temperatures (room temperature 20° C. 40° C. and 60° C.) The lyophilisate—about 1 g—as stored in test-tubes which were sealed air-tight. The duration of the experiments was 8 weeks, every week three parallel measurements were conducted on samples taken from all three series kept at different temperatures. The quantitative analysis of benzoquinone derivatives was conducted by HPLC.

Row | Structure (SMILES) | fungicidal and bacteriostatic effect [1] | cytotoxicity for malignant tumour cells [2] | decomposition of 2-methoxy-p-benzoquinone in the stored material ([3]; room temperature) | decomposition of 2-methoxy-p-benzoquinone in the stored material ([3]; samples kept at 40 or 60° C.)
1 | COC1=CC(=O)C=C(OC)C1=O [2.6-DMBQ, 2.6-dimethoxy-p-benzoquinone] | fungicidal and bacteriostatic effect | cytotoxic |  | 
2 | COC1=CC(=O)C=CC1=O [2-MBQ, 2-methoxy-p-benzoquinone] | fungicidal and bacteriostatic effect |  | remained unchanged | could not be shown after one week of storage
